Experimental data as given in publication PMC6539495, “Anti-Cancer Activity of Novel Dihydrotestosterone-Derived Ring A-Condensed Pyrazoles on Androgen Non-Responsive Prostate Cancer Cell Lines” (International Journal of Molecular Sciences, 2019).

Key:
[1] = test system: MRC-5 cells; assay: MTT cell viability assay on non-cancerous MRC-5 fibroblasts; type: cell-based; conditions: 72 hours, MTT
Method: (§1) HeLa, MCF-7 and MDA-MB-231 cells were obtained from Sigma-Aldrich and maintained as reported previously. MRC-5, PC-3, DU 145 cells were purchased from American Type Culture Collection (ATCC, Manassas, VA, USA). PC-3 and DU 145 were maintained in RPMI medium (Sigma-Aldrich) whereas MRC-5 cells were maintained in DMEM medium (Sigma-Aldrich). All media were complemented with 10% Fetal bovine serum (FBS, Sigma-Aldrich) 2 mM L-glutamine, 0.01% streptomycin and 0.005% ampicillin (Sigma-Aldrich). Cells were cultured under standard conditions in a 37 °C incubator containing 5% CO2 in 95% humidity.
(§2) Each test compound was dissolved in cell culture grade DMSO (Molar Chemicals, Halásztelek, Hungary) in a final concentration of […]. Antiproliferative action of the synthesized steroids was investigated by MTT assay. An amount of 5000 cells/well were seeded into 96 well plates. Twenty-four hours post seeding, all cell lines were treated with each compound in 10 and 30 μM concentrations for 72 hours. […] After 72 hours, cells were washed with PBS and incubated with culture medium containing 0.5 mg/mL MTT (3-(4, 5-dimethylthiazolyl-2)-2,5-diphenyltetrazolium bromide) reagent (SERVA, GmbH, Heidelberg, Germany) for an hour at 37 °C. Formazan crystals were solubilized in DMSO and extinction was measured at 570 nm using a Synergy HTX plate reader (BioTech-Hungary, Budapest, Hungary). MTT assays were performed at least three times using four independent biological replicates. Data were normalized to solvent controls and the graphical representation of the obtained data as well as the calculation of IC50 values were carried out by GraphPad Prism 7 software (GraphPad Software; San Diego, CA, USA).

[2] = test system: DU 145 cells; assay: MTT cell viability assay on DU 145 prostate cancer cells; type: cell-based, human; conditions: 72 hours
Method: as §1, §2

[3] = test system: PC-3 cells; assay: MTT cell viability assay on PC-3 prostate cancer cells; type: cell-based, human; conditions: 72 hours, MTT
Method: as §1, §2

[4] = test system: HeLa cells; assay: MTT cell viability assay on HeLa cervical cancer cells; type: cell-based, human; conditions: 72 hours
Method: as §1, §2

[5] = test system: MCF-7 cells; assay: MTT cell viability assay on MCF-7 breast cancer cells; type: cell-based, human; conditions: 72 hours
Method: as §1, §2

[6] = test system: MDA-MB-231 cells; assay: MTT cell viability assay on MDA-MB-231 breast cancer cells; type: cell-based, human; conditions: 72 hours
Method: as §1, §2

[7] = Solubility in DMSO for pharmacological studies; type: physicochemical; conditions: final concentration of 5 mM
Method: To perform pharmacological studies, the synthesized DHT derivatives were dissolved in DMSO (dimethyl sulfoxide) in a final concentration of 5 mM. One compound (5h) was non-soluble in the applied solvent, thus was excluded from the pharmacological evaluations. […] For this, PC-3 and DU 145 prostate cancer cells, MCF-7 and MDA-MB-231 breast cancer cells, HeLa cervical cancer cells and non-cancerous MRC-5 fibroblasts were used. […] On the heat map representing viability results following treatments with DHT derivatives at 30 µM concentration a remarkable structure–function relationship can be recognized (Figure 3).

[8] = test system: PC-3 cells; assay: Annexin V/PI apoptosis detection assay (flow cytometry); type: cell-based, human; conditions: PC-3, 200 µM cisplatin, 48 h
Method: PC-3 cells were seeded at 2 × 10^6 cells/well density in 6-well plates. On the following day cells were treated with 5 µM of either compound 4e or 4j or with 200 µM of cisplatin (Accord Healthcare Ltd., Middlesex, UK). After 48-hour treatment, cells were collected and a Dead Cell Apoptosis Kit containing AnnexinV-FITC and propidium iodide (Life Technologies-Hungary, Budapest, Hungary) was used according to the manufacturer’s recommendation. Fluorescence intensities of at least 10,000 cells/sample were measured by FACSCalibur™ (BD Biosciences, Franklin Lakes, CA, USA) and data were analyzed by FlowJo V10 software (BD Biosciences, Franklin Lakes, NJ, USA). Experiments were repeated three times using triplicates.

[9] = test system: caspase 3 mRNA in PC-3 cells; assay: RT-qPCR of caspase 3 mRNA; type: cell-based, human; conditions: PC-3, 48 h; 4e, 4j 5 µM; cisplatin 200 µM; GAPDH reference
Method: (§3) PC-3 cells were seeded at 2 × 10^6 cells/well density in 6 well plates. On the following day cells were treated with 5 µM of either compound 4e or 4j or with 200 µM of cisplatin. Cells were collected 48-hours post-treatment and total cellular RNA was isolated using RNeasy® Mini Kit (QIAGEN, Hilden, Germany) according to the manufacturer’s recommendation. RNA (2 µg) was reverse transcribed (TaqMan® Reverse Transcription kit, Applied Biosystems, Foster City, CA, USA) in 50 µL total volume. PCR reactions were performed on PicoReal™ Real-time PCR (Thermo Scientific, Walthan, MA, USA) using SYBRGreen qPCR Master Mix (Thermo Scientific) with an input of 1 µL cDNA. Each primer (Table 3) was used at 200 nM concentration. Relative transcript levels were determined by the ΔΔCt analysis using GAPDH as reference gene. Experiments were repeated three times with three biological replicates.

[10] = test system: Bax mRNA in PC-3 cells; assay: RT-qPCR of Bax mRNA; type: cell-based, human; conditions: PC-3, 48 h; 4e, 4j 5 µM; cisplatin 200 µM; GAPDH reference
Method: as §3

[11] = test system: MRC-5 cells; parameters: method as in PMID 28595942; conditions: assessed previously; cited from earlier work
[12] = test system: DU 145 cells; parameters: method as in PMID 28595942; conditions: assessed previously; cited from earlier work
[13] = test system: PC-3 cells; parameters: method as in PMID 28595942; conditions: assessed previously; cited from earlier work

With `Cc1c2c(nn1-c1ccccc1)C[C@@H]1CC[C@@H]3[C@H](CC[C@]4(C)C(=O)CC[C@@H]34)[C@@]1(C)C2` [5a, 1′-Phenyl-5′-methylpyrazolo[3′,4′:3,2]-5α-androst-17-one] the “Mean values (%) of primary growth inhibitory screen (viability in %), MRC-5” value ([1]; 10 µM) was 78.0%, the “Mean values (%) of primary growth inhibitory screen (viability in %), MRC-5” value ([1]; 30 µM) was 3.9% and the “Mean values (%) of primary growth inhibitory screen (viability in %), DU 145” value ([2]; 10 µM) was 80.1%. For the same compound, the “Mean values (%) of primary growth inhibitory screen (viability in %), DU 145” value ([2]; 30 µM) was 4.0%, the “Mean values (%) of primary growth inhibitory screen (viability in %), PC-3” value ([3]; 10 µM) was 47.7% and the “Mean values (%) of primary growth inhibitory screen (viability in %), PC-3” value ([3]; 30 µM) was 7.6%. For the same compound, the “Mean values (%) of primary growth inhibitory screen (viability in %), HeLa” value ([4]; 10 µM) was 70.5%, the “Mean values (%) of primary growth inhibitory screen (viability in %), HeLa” value ([4]; 30 µM) was 26.2% and the “Mean values (%) of primary growth inhibitory screen (viability in %), MCF-7” value ([5]; 10 µM) was 73.3%. The “Mean values (%) of primary growth inhibitory screen (viability in %), MCF-7” value ([5]; 30 µM) was 7.5%, the “Mean values (%) of primary growth inhibitory screen (viability in %), MDA-MB-231” value ([6]; 10 µM) was 85.0% and the “Mean values (%) of primary growth inhibitory screen (viability in %), MDA-MB-231” value ([6]; 30 µM) was 15.2%. It also gave a melting point of 247 to 250 °C.
With `Cc1c2c(nn1-c1ccc(Br)cc1)CC1CCC3C4CCC(=O)C4(C)CCC3C1(C)C2` (stereo not drawn) [5h, 1′-(4″-Bromophenyl)-5′-methylpyrazolo[3′,4′:3,2]-5α-androst-17-one] the “solubility in the applied solvent (DMSO)” value [7] was “non-soluble”.
With `N.N.[Cl][Pt][Cl]` [cisplatin, reference compound] the “apoptosis induction (annexin V/PI), in words” value [8] was “prominent apoptosis”, the “caspase 3 mRNA expression level compared to untreated control” value [9] was “significantly increased” and the “Bax mRNA expression level compared to untreated control” value [10] was “significantly increased”. The IC50 [11] was 237.3 ± 1.16 µM, the IC50 [12] was 126.8 ± 1.18 µM and the IC50 [13] was 230.9 ± 1.37 µM.
